Activity calls are given as the source filed them. No rule for the calls is given here.
Target: N-formyl peptide receptor 2 (Homo sapiens) (UniProt P25090)
Assay: FPRL1 binding inhibitor potency, dose response, cell-based, FPR counter-screen, fluorescent ligand (AID 520)
Settings: FPRL1-expressing cells, fluorescent ligand binding inhibition; for Ki: measured here: FPRL1 binding Ki

N-formyl peptide receptor 2 (Homo sapiens), sequence (P25090 whole entry, looked up): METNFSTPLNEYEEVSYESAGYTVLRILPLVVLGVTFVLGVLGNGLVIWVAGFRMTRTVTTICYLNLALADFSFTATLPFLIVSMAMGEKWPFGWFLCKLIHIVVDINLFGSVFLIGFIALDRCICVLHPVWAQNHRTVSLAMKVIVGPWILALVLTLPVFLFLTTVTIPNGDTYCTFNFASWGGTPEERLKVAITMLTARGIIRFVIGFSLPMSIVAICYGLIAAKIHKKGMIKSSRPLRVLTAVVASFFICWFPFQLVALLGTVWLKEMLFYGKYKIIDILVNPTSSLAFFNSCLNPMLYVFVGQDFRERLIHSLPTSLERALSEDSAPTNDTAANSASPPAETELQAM

CCOC(=O)Nc1ccc(OC)cc1S(=O)(=O)N1CCCCC1
Ki: > 40.3 µM

Nc1ccc(Nc2ccccc2N)cc1
Ki: 9.1 µM

COc1ccc(OC)c(NC(=O)C2C3CCC(C3=C(C)C)C2C(=O)O)c1 (stereo unspecified)
Ki: > 40.3 µM

CCCCCNC(=O)c1ccc2c(=O)[nH]c3c(C(=O)NCC4CCCO4)sc(=S)n3c2c1 (stereo unspecified)
Ki: > 40.3 µM

COC(=O)c1[nH]c(C)c(/C(O)=C2\C(=O)C(=O)N(CCCN3CCOCC3)C2c2ccccn2)c1C (stereo unspecified)
IC50: > 66.7 µM (inactive)
Ki: > 40.3 µM

COc1cc(C2C(C(=O)c3cccs3)=C(O)C(=O)N2Cc2ccco2)cc(OC)c1OC (stereo unspecified)
IC50: > 66.7 µM (inactive)
Ki: > 40.3 µM

COc1ccc(-c2cc(C(F)(F)F)nc(N3CCN(Cc4ccccc4)CC3)n2)cc1OC
Ki: 7.3 µM

O=C(O)C1CC=CCC1C(=O)N1CCN(c2nc(-c3ccccc3)c3ccccc3n2)CC1 (stereo unspecified)
Ki: > 40.3 µM

CCCOc1ccc(C2C(C(=O)c3ccc(C)o3)=C(O)C(=O)N2CCCn2ccnc2)cc1 (stereo unspecified)
IC50: > 66.7 µM (inactive)
Ki: > 40.3 µM

O=C(C1=C(O)C(=O)N(CC2CCCO2)C1c1cccnc1)c1ccco1 (stereo unspecified)
IC50: > 66.7 µM (inactive)
Ki: > 40.3 µM

CCCc1nc2ccccc2c2nc(N)nn12
Ki: > 40.3 µM

COc1ccccc1C1/C(=C(/O)c2ccccc2)C(=O)C(=O)N1CC(C)C (stereo unspecified)
IC50: > 66.7 µM (inactive)
Ki: > 40.3 µM

O=C(NCc1cccnc1)C1c2ccccc2C(=O)N1C1CCCCCCC1 (stereo unspecified)
Ki: > 40.3 µM

COc1cccc(-c2nc(CS(=O)(=O)CC(=O)NCCC(C)C)c(C)o2)c1
Ki: > 40.3 µM

O=C(O)CCCNc1cc(N2CCC3(CC2)OCCO3)c2noc3c2c1C(=O)c1ccccc1-3
Ki: 6.6 µM

CCOc1cc(C2C(C(=O)c3ccco3)=C(O)C(=O)N2CCc2ccccc2)ccc1O (stereo unspecified)
IC50: > 66.7 µM (inactive)
Ki: > 40.3 µM

CCOC(=O)c1cc(NC(=O)C2C3CCC(O3)C2C(=O)O)cc(C(=O)OCC)c1 (stereo unspecified)
Ki: > 40.3 µM

CC1CCN(c2nc(-c3ccccc3)c(C#N)c(=O)[nH]2)CC1
Ki: > 40.3 µM

COc1ccc(C2C(C(=O)c3cccs3)=C(O)C(=O)N2c2nnc(C)s2)cc1OC (stereo unspecified)
IC50: > 66.7 µM (inactive)
Ki: > 40.3 µM

O=C(NCC1CCCO1)c1ccc(NC(=O)C2CCCCC2C(=O)O)cc1 (stereo unspecified)
Ki: > 40.3 µM

COc1ccc(-c2cc(C(F)(F)F)nc(NC3CCCC3)n2)cc1OC
Ki: > 40.3 µM

COc1ccc(OC)c(C2C(C(=O)c3cc4ccccc4o3)=C(O)C(=O)N2c2cc(C)on2)c1 (stereo unspecified)
IC50: > 66.7 µM (inactive)
Ki: > 40.3 µM

CNc1nn(-c2cccc(Cl)c2)nc1N
Ki: 11 µM

COc1ccc(-c2nnc(Nc3nc4c(OC)cccc4s3)o2)c(OC)c1
Ki: > 40.3 µM

CCN(CC)c1ccc(C=N/C(C#N)=C(\N)C#N)cc1
IC50: > 66.7 µM (inactive)
Ki: > 40.3 µM

Cc1nc2c(-c3ccc(F)cc3)c(C)nn2c(C)c1CCC(=O)NC(C)CCc1ccco1 (stereo unspecified)
Ki: > 40.3 µM

CCOc1ccc(C2C(C(=O)c3ccco3)=C(O)C(=O)N2Cc2cccnc2)cc1 (stereo unspecified)
IC50: > 66.7 µM (inactive)
Ki: > 40.3 µM

COc1ccc(/C(O)=C2\C(=O)C(=O)N(Cc3ccco3)C2c2ccc(OC)cc2OC)cc1 (stereo unspecified)
IC50: > 66.7 µM (inactive)
Ki: > 40.3 µM

Cc1ccsc1C1C2=C(CC(C)(C)CC2=O)Nc2ncnn21 (stereo unspecified)
IC50: > 66.7 µM (inactive)
Ki: > 40.3 µM

Cc1cccc(-n2nc3c(c2NC(=O)c2ccco2)CSC3)c1C
Ki: > 40.3 µM

CCC(CC)C(=O)Nc1c2cnn(-c3ccccc3)c2nc(=O)n1-c1ccccc1
Ki: > 40.3 µM

COC(=O)C1(S(=O)(=O)c2cccc3nsnc23)CC1
Ki: > 40.3 µM

COc1ccccc1C1/C(=C(/O)c2ccccc2)C(=O)C(=O)N1CC(C)O (stereo unspecified)
IC50: > 66.7 µM (inactive)
Ki: > 40.3 µM

COc1ccc(-c2cc(C(F)(F)F)nc(N3CCN(c4ccccc4)CC3)n2)cc1OC
Ki: > 40.3 µM

Clc1ccc(C2CC(c3cccs3)n3ncnc3N2)cc1Cl (stereo unspecified)
Ki: > 40.3 µM

CCc1nnc(NC(=O)CSc2nnc(-c3cc4ccccc4cc3O)n2CC)s1
Ki: > 40.3 µM

CC1=C(C(=O)OC(C)C)[C@]2(C(=O)N(CC(N)=O)c3ccccc32)C(C#N)=C(N)O1
IC50: > 66.7 µM (inactive)
Ki: > 40.3 µM

From PubChem BioAssay AID520 (NMMLSC, 2006)
